Values of other authors as cited in US12225905B2, “Antimicrobial superabsorbent compositions” (Matoke Holdings Limited, priority 2017, dated 2025).

Details: 20° C. and 1 atm

In the case of `O=C(CO)[C@@H](O)[C@H](O)[C@H](O)CO` [Fructose], the solubility is given as “about 375 g/100 g water”.
